The text below walks through data of paper PMC12654037, “Norditerpene Natural Products from Subterranean Fungi with Anti-Parasitic Activity” (Microorganisms, 2025).

For one series, the system named is HCT-8 cells. In words: HCT-8 cytotoxicity assay. The format is cell-based. How it is done: (§1) HCT-8 and HFF cytotoxicity assays: Cytotoxicity of the compounds was determined against both confluent (the conditions of the infection assays) and growing HCT-8 and HFF host cells, as previously described. Cells were seeded into white-sided, clear-bottom 96-well plates and grown to either 40% or 100% confluency. Compounds were added to cells at various concentrations up to 100 µM in a final DMSO concentration of 0.5%. DMSO was run in parallel as a vehicle control. After 48 h, the viability of the cells was determined by either quantification of cellular ATP (Cell-Titer Glo cell viability assay; Promega, Madison WI, USA) or by MTT assay. Viability was determined 24 h after compound addition to HFF cells or 48 h after compound addition to HCT-8 cells or HepG2 cells. The percent cell growth was then calculated with the following formula: % Cell Growth = [RLUcompound/RLUDMSO] × 100. Samples were run in triplicate with two to three biological replicates.

The nature of another series: HCT-8 cytotoxicity assay. The format is cell-based. The settings on record: human; sub-confluent (~40% confluency); read-out: EC50 cytotoxicity against sub-confluent HCT-8 cells. How it is done:
as §1

A further series relates to C. parvum oocysts. In words: C. parvum oocyst excystation assay. The settings on record: 7.5 µM, 1-hour incubation. The format is cell-based, Cryptosporidium parvum. How it is done:
(§2) C. parvum excystation and invasion assays: Oocyst excystation rates in the presence of compounds were determined as previously described. The C. parvum invasion inhibition assays were conducted in two formats. In the first format, described previously, HCT-8 cells were seeded on glass slides (CELLTREAT Scientific Product, Pepperell, MA, USA) and allowed to grow to confluence. Oidiolactone A was added to the cells for one hour. TrtE and DMSO were run in parallel as positive and negative controls, respectively. The cell monolayers were then infected with 1.2 × 10^6 wild-type C. parvum oocysts. After 3 h of incubation at 37 °C, the slides were washed five times with 111 mM D-galactose, fixed with 4% paraformaldehyde, and permeabilized with 0.25% Triton-X. C. parvum sporozoites were detected with rabbit anti-gp40 [39] and Alexa Fluor 594 goat anti-rabbit antibodies. The HCT-8 cell nuclei were stained with 0.09 mM Hoechst. Slides were coded to enable unbiased counting, and sporozoites from at least 10 randomly selected fields were counted in each sample at 100× magnification (Zeiss® Axioscope 5). The percentage of invaded parasites was determined using the following equation: % Invaded parasites = [parasitescompound/parasitesDMSO] × 100. This experiment was run in duplicate with two biological replicates.

Another series concerns HepG2 human hepatocytes. In words: HepG2 cytotoxicity assay (MTS). The format is cell-based. The settings on record: 48 h, mean +/- SD. The procedure: HepG2 cytotoxicity assay: Mammalian cell cytotoxicity was assessed in HepG2 human hepatocytes using an MTS 3-(4,5-dimethylthiazol-2-yl)-5-(3-carboxymethoxyphenyl)-2-(4-sulfophenyl)-2H-tetrazolium)-based cytotoxicity assay. For cytotoxicity testing, ∼2250 cells were seeded into each well of a 384-well microtiter plate and incubated for 24 h. Serial dilutions of the compounds were added in triplicate starting at 25 μM. Cells were further incubated for an additional 48 h at 37 °C in an atmosphere containing 5% CO2. Zero-growth control wells were incubated with 5% Triton X-100 for 5 min prior to MTS addition. Following the addition of MTS to all wells, the plates were incubated for an additional 4 h under the same environmental conditions before taking absorbance measurements. Absorbance values were recorded at 490 nm using a Synergy Neo2 multimode reader (BioTek), and values were normalized based on Triton X-100-lysed and no treatment controls. Samples were run in triplicate in each assay, and the experiments were repeated three times.

Another series has as its system HuF fibroblast cell line. The settings on record: cited from earlier work.
In another series the test system is C. parvum sporozoites. Description: C. parvum invasion inhibition assay. The format is cell-based, Cryptosporidium parvum. To be noted: 7.5 µM, 3 h infection, luciferase and IFA formats. The procedure:
as §2, with “replicates. […]” for “replicates.”

A further series has as its system P. falciparum 3D7. Description: Plasmodium falciparum growth inhibition assay (SYBR Green I), 3D7. The settings on record: 3D7, 72 h, read-out: EC50 3D7(M).
The subject of the next series is TgRH-Luc:GFP. In words: T. gondii -static versus -cidal washout assay. The format is cell-based, Toxoplasma gondii. The settings on record: for treatment time after which T. gondii did not recover (killing time): at EC90 15 µM, compound washed out, read 48 h post-infection. The procedure: T. gondii growth inhibition assays: The T. gondii inhibition assay was described previously. Briefly, HFF cells were seeded onto white-sided, clear-bottom 96 well plates, grown to confluence, and then 5000 TgRH-Luc:GFP parasites were added to each well. At 24 hpi, compounds or DMSO were added. The growth of the parasites was determined by relative luminescence at 48 hpi using Promega Bright-Glo (Promega, Madison, WI, USA) substrate. Plates were read, and the percent inhibition of parasite growth was calculated as described above. Determination of -static versus -cidal activity was conducted as indicated above, with parasite growth quantified after 48 h of infection. Each sample was run in triplicate, and each experiment was repeated three times.

A short description of another series: in vitro. The format is in vitro ADME. To be noted: plasma. The procedure: Plasma stability assay. The plasma stability assay was performed in duplicate by incubating each selected compound (1 µmol/L final concentration) in normal mouse (CD-1) or human plasma (Innovative Research, Novi, MI, USA) at 37 °C.

SMILES strings stand for the structures. Entries after “also recorded” stand apart in the source; their conditions may differ. Where two headings read alike, the source gives them in different places.

Experimental for P. falciparum 3D7: Plasmodium falciparum growth inhibition assay: Antiplasmodial EC50 results were determined using a fluorescence-based SYBR Green I assay performed using asynchronous cultures [30, 35]. […] Plates were subsequently frozen at −80 °C to facilitate lysis. […] Relative fluorescence units (RFUs) were normalized based on chloroquine-treated and no treatment controls. Serial dilutions of compounds were prepared in RPMI with final assay conditions of ≤0.2% DMSO. Each assay was conducted in triplicate with three biological replicates.

On to `CO[C@H]1OC(=O)C=C2[C@@]13O[C@@H]3[C@H]1OC(=O)[C@@]3(C)CCC[C@@]2(C)[C@@H]13` [compound 1, oidiolactone A], for which the “TC50 HCT-8 (confluent)” value in the series on HCT-8 cells (confluent) is recorded as greater than 30 µM. The “toxicity to host cells (no toxicity up to)” value in the series on HCT-8 cells (confluent HCT-8, conditions of the infection assay, 48 h, cellular ATP) was greater than 100 µM. In addition, the “TC50 HCT-8 (sub-confluent)” value in the series on HCT-8 cells (sub-confluent) is recorded as 29.7 ± 1.8 µM. In addition, the EC50 at 48 h in the series “HCT-8 cytotoxicity assay” was 29.7 µM. In the series on C. parvum oocysts, the “effect on oocyst excystation” value was “no effect”. Further, the TC50 HepG2 in the series on HepG2 human hepatocytes is greater than 25 µM. Moreover, the “cytotoxicity against human fibroblast” value with HuF fibroblast cell line was “no cytotoxicity observed”. Further, in the series on HuF fibroblast cell line (sub-confluent, ref Rusman et al. 2020 [25]), the “TC50 HuF (sub-confluent)” value was greater than 30 µM. In addition, the “effect on parasite invasion” value with C. parvum sporozoites is given as “no effect; also recorded: did not exhibit any effect”. Also, the EC50 in the series with P. falciparum 3D7 turned out to be 3.33e-06 ± 6.4e-07 M. Also, it took 15 µM to reach the 90% level with TgRH-Luc:GFP (Toxoplasma gondii) (EC90). The “treatment time after which T. gondii did not recover (killing time)” value with TgRH-Luc:GFP (listed as Oidiolactone A) was no more than 24 h; with TgRH-Luc:GFP (listed as oidiolactone A), 8 to 12 h. The half-life at 1 µmol/L is 1.76 ± 0.0283 h in “in vitro” (CD-1, mouse, 1 µmol/L, 37 °C, mean ± SD, read-out: Mouse Plasma Stability t½); less than 2 h in “in vitro” (CD-1, mouse, discussion, read-out: half-life in mouse blood plasma); 0.2917 ± 0.00167 h in the series “in vitro” (human, 37 °C, mean ± SD, read-out: Human Plasma Stability t½).

What is called EC50 is the concentration that produces a half-maximal response. Usually EC90 stands for the point of the concentration-response curve where the effect stands at 90%. High values mean a need for much substance, low ones an effect from little substance.
